Assay [1] has as its system Rattus norvegicus. Kind of assay: Antidiabetic activity in high fat diet-STZ induced diabetic Wistar rat model assessed as creatinine level at 10 mg/kg, ip pretreated with high fat diet for 4 weeks followed by 8 hrs fasting after STZ administration and measured 4 weeks after compound treatment (reference value: 3.88 +/- 0.502 mg%). It is filed as functional.
Assay [2] relates to Rattus norvegicus. Briefly: Antidiabetic activity in high fat diet-STZ induced diabetic Wistar rat model assessed as blood urea nitrogen level at 10 mg/kg, ip pretreated with high fat diet for 4 weeks followed by 8 hrs fasting after STZ administration and measured 4 weeks after compound treatment (reference value: 466.4 +/- 51.16 mg%). Format: functional.
Assay [3] has as its system Rattus norvegicus. Briefly: Antidiabetic activity in high fat diet-STZ induced diabetic Wistar rat model assessed as glucose level in serum at 20 mg/kg, ip pretreated with high fat diet for 4 weeks followed by 8 hrs fasting after STZ administration and measured 4 weeks after compound treatment (reference value: 527.7 +/- 49.1 mg%). Format: functional.
The test system of assay [4] is Rattus norvegicus. Kind of assay: Antidiabetic activity in high fat diet-STZ induced diabetic Wistar rat model assessed as LDL-cholesterol level at 20 mg/kg, ip pretreated with high fat diet for 4 weeks followed by 8 hrs fasting after STZ administration and measured 4 weeks after compound treatment (reference value: 6.54 +/- 0.918 mmol/L). It is filed as functional.

Assay [5] has as its system Rattus norvegicus. Kind of assay: Antidiabetic activity in high fat diet-STZ induced diabetic Wistar rat model assessed as mean area percentage of LC3B in liver at 10 mg/kg, ip pretreated with high fat diet for 4 weeks followed by 8 hrs fasting after STZ administration and measured after 4 weeks of compound treatment by immunohistochemistry based microscopic analysis (reference value: 0.742 +/- 0.143 %). It is filed as functional.

For assay [6], the system named is Rattus norvegicus. Briefly: Antidiabetic activity in high fat diet-STZ induced diabetic Wistar rat model assessed as mean area percentage of TNF alpha in liver at 10 mg/kg, ip pretreated with high fat diet for 4 weeks followed by 8 hrs fasting after STZ administration and measured after 4 weeks of compound treatment by immunohistochemistry based microscopic analysis (reference value: 18.28 +/- 1.31 %). It is filed as functional.

For assay [7], the system named is Rattus norvegicus. Kind of assay: Antidiabetic activity in high fat diet-STZ induced diabetic Wistar rat model assessed as mean area percentage of TNF alpha in liver at 20 mg/kg, ip pretreated with high fat diet for 4 weeks followed by 8 hrs fasting after STZ administration and measured after 4 weeks of compound treatment by immunohistochemistry based microscopic analysis (reference value: 18.28 +/- 1.31 %). Format: functional.

For assay [8], the system named is Rattus norvegicus. Kind of assay: Antidiabetic activity in high fat diet-STZ induced diabetic Wistar rat model assessed as mean area percentage of LC3B in kidney at 10 mg/kg, ip pretreated with high fat diet for 4 weeks followed by 8 hrs fasting after STZ administration and measured after 4 weeks of compound treatment by immunohistochemistry based microscopic analysis (reference value: 2.47 +/- 0.356 %). It is filed as functional.

The test system of assay [9] is Rattus norvegicus. Briefly: Antidiabetic activity in high fat diet-STZ induced diabetic Wistar rat model assessed as mean area percentage of TNFalpha in kidney at 10 mg/kg, ip pretreated with high fat diet for 4 weeks followed by 8 hrs fasting after STZ administration and measured after 4 weeks of compound treatment by immunohistochemistry based microscopic analysis (reference value: 24 +/- 1.5 %). It is filed as functional.

For assay [10], the system named is Rattus norvegicus. Kind of assay: Antidiabetic activity in ip dosed high fat diet-STZ induced diabetic Wistar rat model assessed as reduction of ZBP1 mRNA expression in liver pretreated with high fat diet for 4 weeks followed by 8 hrs fasting after STZ administration and measured 4 weeks after compound treatment by RT-qPCR analysis. Format: functional, organism-based. The note with it: dose 10-30 mg/kg. In general terms: In qPCR the cycle at which signal appears reflects the starting amount.

Assay [11] relates to Rattus norvegicus. Briefly: Antidiabetic activity in ip dosed high fat diet-STZ induced diabetic Wistar rat model assessed as reduction of DDX58 mRNA expression in kidney pretreated with high fat diet for 4 weeks followed by 8 hrs fasting after STZ administration and measured 4 weeks after compound treatment by RT-qPCR analysis. Format: functional, organism-based. The conditions noted are these: dose 10-30 mg/kg.

Assay [12] deals with Rattus norvegicus. Kind of assay: Antidiabetic activity in high fat diet-STZ induced diabetic Wistar rat model assessed as increase in AC074117.2 lncRNA expression in liver at 10 to 30 mg/kg, ip pretreated with high fat diet for 4 weeks followed by 8 hrs fasting after STZ administration and measured 4 weeks after compound treatment by RT-qPCR analysis. Format: functional, organism-based. The note with it: dose 10-30 mg/kg.

Assay [13] has as its system Rattus norvegicus. Briefly: Antidiabetic activity in high fat diet-STZ induced diabetic Wistar rat model assessed as increase in AC074117.2 lncRNA expression in kidney at 10 to 30 mg/kg, ip pretreated with high fat diet for 4 weeks followed by 8 hrs fasting after STZ administration and measured 4 weeks after compound treatment by RT-qPCR analysis. It is filed as functional, organism-based. The note with it: dose 10-30 mg/kg.

Assay [14] has as its system Rattus norvegicus. Kind of assay: Antidiabetic activity in high fat diet-STZ induced diabetic Wistar rat model assessed as intact tubular segments in kidney at 20 to 30 mg/kg, ip pretreated with high fat diet for 4 weeks followed by 8 hrs fasting after STZ administration and measured 4 weeks after compound treatment by hematoxylin and eosin staining based microscopic analysis. The conditions noted are these: dose 20-30 mg/kg. Format: functional, organism-based.

Assay [15] relates to Rattus norvegicus. Briefly: Antidiabetic activity in high fat diet-STZ induced diabetic Wistar rat model assessed as reduction in tubular dilation in kidney at 30 mg/kg, ip pretreated with high fat diet for 4 weeks followed by 8 hrs fasting after STZ administration and measured 4 weeks after compound treatment by hematoxylin and eosin staining based microscopic analysis. Format: functional, organism-based.

The subject of assay [16] is Rattus norvegicus. Briefly: Antidiabetic activity in high fat diet-STZ induced diabetic Wistar rat model assessed as reduction in epididymal adipocyte cell size in adipose tissue at 20 to 30 mg/kg, ip pretreated with high fat diet for 4 weeks followed by 8 hrs fasting after STZ administration and measured 4 weeks after compound treatment by hematoxylin and eosin staining based microscopic analysis. It is filed as functional, organism-based. The note with it: dose 20-30 mg/kg.

Assay [17] concerns Rattus norvegicus. Briefly: Antidiabetic activity in high fat diet-STZ induced diabetic Wistar rat model assessed as protection against periportal mononuclear inflammatory cell infiltration in liver at 10 mg/kg, ip pretreated with high fat diet for 4 weeks followed by 8 hrs fasting after STZ administration and measured 4 weeks after compound treatment by hematoxylin and eosin staining based microscopic analysis. It is filed as functional, organism-based.

In assay [18] the test system is Rattus norvegicus. Kind of assay: Antidiabetic activity in high fat diet-STZ induced diabetic Wistar rat model assessed as reduction in inflammatory cell infiltrates in liver at 30 mg/kg, ip pretreated with high fat diet for 4 weeks followed by 8 hrs fasting after STZ administration and measured 4 weeks after compound treatment by hematoxylin and eosin staining based microscopic analysis. Format: functional, organism-based.

The subject of assay [19] is Rattus norvegicus. Briefly: Antidiabetic activity in high fat diet-STZ induced diabetic Wistar rat model assessed as preserved integrity of tubular epithelium in kidney at 20 to 30 mg/kg, ip pretreated with high fat diet for 4 weeks followed by 8 hrs fasting after STZ administration and measured 4 weeks after compound treatment by hematoxylin and eosin staining based microscopic analysis. The conditions noted are these: dose 20-30 mg/kg. Format: functional, organism-based.

Active and inactive are the calls of the source. The rule behind the calls is not given here.

`O[C@@H]1[C@@H](O)[C@H](OC/C=C/c2ccccc2)O[C@H](CO[C@@H]2OC[C@H](O)[C@H](O)[C@H]2O)[C@H]1O`: the Activity is on record as 2.12 mg% with Rattus norvegicus [1]; 254.7 mg% in the assay with Rattus norvegicus [2]; 174.8 mg% in the assay with Rattus norvegicus [3]; 2.13 mmol/L in the assay on Rattus norvegicus [4]; 2.22% in the assay on Rattus norvegicus [5]; 11.3% in the assay with Rattus norvegicus [6]. Also, the Activity in the assay with Rattus norvegicus [7] is 8.75%; in the assay on Rattus norvegicus [8], 8.6%; in the assay with Rattus norvegicus [9], 16.98%; in the assay on Rattus norvegicus [10] it was “Dose-Dependent Effect”; in the assay with Rattus norvegicus [11], “Dose-Dependent Effect”. Moreover, the result in the assay on Rattus norvegicus [12], in the assay with Rattus norvegicus [13], in the assay on Rattus norvegicus [14], in the assay on Rattus norvegicus [15], in the assay with Rattus norvegicus [16] and with Rattus norvegicus [18] was Active. Besides, the outcome in the assay with Rattus norvegicus [19] was Active. Moreover, the outcome in the assay with Rattus norvegicus [17] was inactive.

These data come from ChEMBL document CHEMBL5532761, “Rosavin improves insulin resistance and alleviates hepatic and kidney damage via modulating the cGAS-STING pathway and autophagy signaling in HFD/STZ-induced T2DM animals” (2024).
